Experimental data: patent publication US11147272B2, “Pyridone compounds and agricultural and horticultural fungicides comprising the same as active ingredients” (MITSUI CHEMICALS AGRO, INC., priority 2017, dated 2021)

Experiments:
Magnaporthe grisea = experiment: whole plant or invertebrate; assay type: in vivo; details: Blast on rice; control value class
Alternaia brassicicola = experiment: Test Example C: Alternaria sooty spot on cabbage; assay type: in vivo; details: Alternaria sooty spot on cabbage; control value class
Text: Seeds of a test plant (cabbage variety: Shikidori) were planted and cultivated until the cotyledons extended.
<Control Value> Control value=100{1−(n/3)}

Plasmopara viticola = experiment: Test Example G: Downy mildew on vine; details: Downy mildew on vine; 250 ppm spray, 7 to 10 days after inoculation
Phytophthora infestans = experiment: whole plant or invertebrate; assay type: in vivo; details: Late blight on tomato; control value class
Puccinia recondita = experiment: Test Example E: Brown rust on wheat; assay type: in vivo; details: Brown rust on wheat; control value class
[1] = test system: Colletotrichum orbiculare; experiment: Test Example H: Anthracnose on cucumber; details: Anthracnose on cucumber; 250 ppm spray, 6 to 10 days after inoculation
[2] = test system: Blumeria graminis f. sp. hordei; experiment: Test Example D: Powdery mildew on barley; details: Powdery mildew on barley; control value class
Botrytis cinerea = experiment: Test Example B: Gray mold on tomato; details: Gray mold on tomato; control value class

CCCc1cc(Br)c(=O)n(CC)c1-c1ccc(OC)cc1Cl [compound 321]
Test A control value (Magnaporthe grisea): H (more than 50% control value) | Test C control value (Alternaia brassicicola): H (more than 50% control value) | Test G control value (Plasmopara viticola): H (more than 50% control value) | Test F control value (Phytophthora infestans): L (50% or less control value) | Test E control value (Puccinia recondita): H (more than 50% control value) | Test H control value [1]: H (more than 50% control value) | Test D control value [2]: H (more than 50% control value) | Test B control value (Botrytis cinerea): H (more than 50% control value)

CCc1ccc(=O)n(C)c1-c1ccc(OC)cc1Cl [compound 322]
Test A control value (Magnaporthe grisea): L (50% or less control value) | Test C control value (Alternaia brassicicola): L (50% or less control value) | Test G control value (Plasmopara viticola): L (50% or less control value) | Test F control value (Phytophthora infestans): L (50% or less control value) | Test E control value (Puccinia recondita): H (more than 50% control value) | Test H control value [1]: H (more than 50% control value) | Test D control value [2]: L (50% or less control value) | Test B control value (Botrytis cinerea): H (more than 50% control value)

CCCC1=C(c2ccc(F)cc2Cl)N(C)C(=O)CC1 [compound 323]
Test A control value (Magnaporthe grisea): L (50% or less control value) | Test C control value (Alternaia brassicicola): L (50% or less control value) | Test G control value (Plasmopara viticola): L (50% or less control value) | Test F control value (Phytophthora infestans): L (50% or less control value) | Test E control value (Puccinia recondita): L (50% or less control value) | Test H control value [1]: L (50% or less control value) | Test D control value [2]: L (50% or less control value) | Test B control value (Botrytis cinerea): H (more than 50% control value)

CCc1cc(Cl)c(=O)n(C)c1-c1ccc(OC)cc1Cl [compound 324]
Test A control value (Magnaporthe grisea): L (50% or less control value) | Test C control value (Alternaia brassicicola): H (more than 50% control value) | Test G control value (Plasmopara viticola): H (more than 50% control value) | Test F control value (Phytophthora infestans): L (50% or less control value) | Test E control value (Puccinia recondita): H (more than 50% control value) | Test H control value [1]: H (more than 50% control value) | Test D control value [2]: L (50% or less control value) | Test B control value (Botrytis cinerea): H (more than 50% control value)

CCc1cc(Br)c(=O)n(C)c1-c1ccc(OC)cc1Cl [compound 325]
Test A control value (Magnaporthe grisea): L (50% or less control value) | Test C control value (Alternaia brassicicola): H (more than 50% control value) | Test G control value (Plasmopara viticola): H (more than 50% control value) | Test F control value (Phytophthora infestans): L (50% or less control value) | Test E control value (Puccinia recondita): H (more than 50% control value) | Test H control value [1]: H (more than 50% control value) | Test D control value [2]: L (50% or less control value) | Test B control value (Botrytis cinerea): H (more than 50% control value)

CCn1c(-c2c(F)cc(F)cc2F)c(C(Br)=CBr)cc(Cl)c1=O [compound 326]
Test A control value (Magnaporthe grisea): H (more than 50% control value) | Test C control value (Alternaia brassicicola): H (more than 50% control value) | Test G control value (Plasmopara viticola): L (50% or less control value) | Test F control value (Phytophthora infestans): L (50% or less control value) | Test E control value (Puccinia recondita): H (more than 50% control value) | Test H control value [1]: H (more than 50% control value) | Test D control value [2]: H (more than 50% control value) | Test B control value (Botrytis cinerea): H (more than 50% control value)

CCc1cc(Cl)c(=O)n(CC)c1-c1ccc(OC)cc1Cl [compound 327]
Test A control value (Magnaporthe grisea): H (more than 50% control value) | Test C control value (Alternaia brassicicola): H (more than 50% control value) | Test G control value (Plasmopara viticola): H (more than 50% control value) | Test F control value (Phytophthora infestans): H (more than 50% control value) | Test E control value (Puccinia recondita): H (more than 50% control value) | Test H control value [1]: H (more than 50% control value) | Test D control value [2]: L (50% or less control value) | Test B control value (Botrytis cinerea): H (more than 50% control value)

CCc1cc(Br)c(=O)n(CC)c1-c1ccc(OC)cc1Cl [compound 328]
Test A control value (Magnaporthe grisea): H (more than 50% control value) | Test C control value (Alternaia brassicicola): H (more than 50% control value) | Test G control value (Plasmopara viticola): H (more than 50% control value) | Test F control value (Phytophthora infestans): L (50% or less control value) | Test E control value (Puccinia recondita): H (more than 50% control value) | Test H control value [1]: H (more than 50% control value) | Test D control value [2]: L (50% or less control value) | Test B control value (Botrytis cinerea): H (more than 50% control value)

CCCc1ccc(=O)n(C)c1-c1ccc(F)cc1Cl [compound 329]
Test A control value (Magnaporthe grisea): L (50% or less control value) | Test C control value (Alternaia brassicicola): L (50% or less control value) | Test G control value (Plasmopara viticola): L (50% or less control value) | Test F control value (Phytophthora infestans): L (50% or less control value) | Test E control value (Puccinia recondita): H (more than 50% control value) | Test H control value [1]: L (50% or less control value) | Test D control value [2]: H (more than 50% control value) | Test B control value (Botrytis cinerea): H (more than 50% control value)

CCc1cc(Cl)c(=O)n(C)c1-c1ccc(O)cc1Cl [compound 330]
Test A control value (Magnaporthe grisea): L (50% or less control value) | Test C control value (Alternaia brassicicola): L (50% or less control value) | Test G control value (Plasmopara viticola): H (more than 50% control value) | Test F control value (Phytophthora infestans): L (50% or less control value) | Test E control value (Puccinia recondita): L (50% or less control value) | Test H control value [1]: L (50% or less control value) | Test D control value [2]: L (50% or less control value) | Test B control value (Botrytis cinerea): H (more than 50% control value)

CCCc1ccc(=S)n(CC)c1-c1ccc(F)cc1Cl [compound 331]
Test A control value (Magnaporthe grisea): L (50% or less control value) | Test C control value (Alternaia brassicicola): L (50% or less control value) | Test G control value (Plasmopara viticola): L (50% or less control value) | Test F control value (Phytophthora infestans): L (50% or less control value) | Test E control value (Puccinia recondita): H (more than 50% control value) | Test H control value [1]: H (more than 50% control value) | Test D control value [2]: H (more than 50% control value) | Test B control value (Botrytis cinerea): H (more than 50% control value)

CCCc1cc(Cl)c(=O)n(C)c1-c1ccc(F)cc1Cl [compound 332]
Test A control value (Magnaporthe grisea): H (more than 50% control value) | Test C control value (Alternaia brassicicola): H (more than 50% control value) | Test G control value (Plasmopara viticola): L (50% or less control value) | Test F control value (Phytophthora infestans): L (50% or less control value) | Test E control value (Puccinia recondita): H (more than 50% control value) | Test H control value [1]: H (more than 50% control value) | Test D control value [2]: H (more than 50% control value) | Test B control value (Botrytis cinerea): H (more than 50% control value)

CCCc1ccc(=O)n(C)c1-c1ccc(OC)cc1Cl [compound 334]
Test A control value (Magnaporthe grisea): L (50% or less control value) | Test C control value (Alternaia brassicicola): L (50% or less control value) | Test G control value (Plasmopara viticola): L (50% or less control value) | Test F control value (Phytophthora infestans): L (50% or less control value) | Test E control value (Puccinia recondita): H (more than 50% control value) | Test H control value [1]: L (50% or less control value) | Test D control value [2]: H (more than 50% control value) | Test B control value (Botrytis cinerea): H (more than 50% control value)

CCCc1cc(Cl)c(=O)n(C)c1-c1ccc(OC)cc1Cl [compound 335]
Test A control value (Magnaporthe grisea): H (more than 50% control value) | Test C control value (Alternaia brassicicola): H (more than 50% control value) | Test G control value (Plasmopara viticola): H (more than 50% control value) | Test F control value (Phytophthora infestans): L (50% or less control value) | Test E control value (Puccinia recondita): H (more than 50% control value) | Test H control value [1]: H (more than 50% control value) | Test D control value [2]: H (more than 50% control value) | Test B control value (Botrytis cinerea): H (more than 50% control value)

CCCc1cc(Br)c(=O)n(C)c1-c1ccc(OC)cc1Cl [compound 336]
Test A control value (Magnaporthe grisea): H (more than 50% control value) | Test C control value (Alternaia brassicicola): H (more than 50% control value) | Test G control value (Plasmopara viticola): H (more than 50% control value) | Test F control value (Phytophthora infestans): L (50% or less control value) | Test E control value (Puccinia recondita): H (more than 50% control value) | Test H control value [1]: H (more than 50% control value) | Test D control value [2]: L (50% or less control value) | Test B control value (Botrytis cinerea): H (more than 50% control value)
